Results on four compounds are retold here after PMC5458179, “Oxidative DNA double strand breaks and autophagy in the antitumor effect of sterically hindered platinum(II) complexes in NSCLCs” (Oncotarget, 2017).

In test [1] the test system is HCT-116. The test can be described thus: MTT cytotoxicity assay. It counts as cell-based, human. The settings on record: 48 h drug exposure. As for the experimental part:
(§1) The results reveal that the steric hindrance plays a significant role in the cytotoxicity of complex 3.
(§2) Human cancer cell lines HepG2, SGC-7901, HCT-116, A549, NCI-H1299 and MCF-7 as well as normal liver cell line L02 were purchased from the Cell Bank of Shanghai Institute of Cell Biology. Among them, MCF-7, HepG2 cells were cultured at 37 °C in 5% CO2 with DMEM supplemented with 10% fetal bovine serum (FBS) (Hyclone, Lifescience, USA) and 1% penicillin/streptomycin (Beyotime, Nantong, China), while HCT-116, SGC-7901, A549, NCI-H1299 and L02 cells were cultured at 37 °C in 5% CO2 with RPMI-1640 supplemented with 10% FBS and 1% penicillin/streptomycin. Cells were passed every 2 days and restarted from frozen stocks upon reaching pass number 20.
(§3) In vitro cytotoxicity of the platinum compounds against human hepatocellular carcinoma (HepG-2), gastric carcinoma (SGC-7901), non-small-cell lung cancer (A549), and colorectal cancer (HCT-116) cell lines were measured by the MTT assays. Briefly, the cells were seeded in 96-well cultured plates at a density of 5000 cells/well. After overnight incubation (16 h), the cells were treated with the platinum complexes. After 48 h of incubation, 10 μL of a freshly diluted 3-(4,5-dimethyl-2-thiazolyl)-2,5-diphenyl-2H-tetrazolium bromide (MTT) solution (5 mg/mL) were added to each well and the plates were incubated at 37 °C in a humidified 5% CO2 atmosphere for 4 h. At the end of the incubation period the medium was removed and the formazan product was dissolved in 150 μL of DMSO. The cell viability was evaluated by measurement of the absorbance at 490 nm, using an Absorbance Reader (BioRad). IC50 values (compound concentration that produces 50% of cell growth inhibition) were calculated from curves constructed by plotting cell survival inhibitory rate (%) versus drug concentration logarithm. All experiments were repeated in three times. The reading values were converted to the percentage of control (% cell survival). Cytotoxic effects were expressed as IC50 values.
In general terms: Tetrazolium dyes change colour on reduction, which living cells bring about.

Test [2] has as its system SGC-7901. The test can be described thus: MTT cytotoxicity assay. It counts as cell-based, human. The settings on record: 48 h drug exposure. As for the experimental part: as §1, §2, §3
For test [3], the system named is HepG2. The test can be described thus: MTT cytotoxicity assay. In kind it is cell-based, human. The settings on record: 48 h drug exposure. As for the experimental part:
as §1, §2, §3

Test [4] concerns L02 normal liver cell line. As to the kind of experiment: MTT cytotoxicity assay. It counts as cell-based. The settings on record: 48 h drug exposure. Here is the method: as §1, §2, §3
Test [5] has as its system NCI-H1299. The test can be described thus: MTT cytotoxicity assay. It counts as cell-based, human. The settings on record: 48 h drug exposure, read-out: IC50 NCI-H1299. As for the experimental part:
as §1
(§4) The effects of complex 3 on the viability of NSCLC cancer cells including A549 and NCI-H1299 were detected respectively via MTT assays at time points of 12, 24, 48 and 72 h (Figure 2A). The results shown that complex 3 could inhibit the viability of the NSCLC cells.
as §2, §3

In test [6] the test system is A549. As to the kind of experiment: MTT cytotoxicity assay. The settings on record: 48 h drug exposure. It counts as cell-based, human. As for the experimental part:
as §1, §4, §2, §3

The test system of test [7] is A549 cells. The test can be described thus: Quantification of apoptotic cells (annexin V/PI flow cytometry). It counts as cell-based, human. The settings on record: A549, NAC pretreatment. As for the experimental part:
(§5) The role of complex 3-induced autophagy in cell death was further analyzed (Figure 6). When A549 cancer cells were treated with complex 3 of 10 μM, the protein expression of LC3-II was increased (Figure 6A). […] Treatment with complex 3 for 24 h caused a 4.5-folds increase in cells undergoing autophagy (Figure 6C). […] Moreover, Bax and Bcl-2 expressions were measured by western blot analysis of whole cell lysates.
(§6) To investigate the role of ROS in complex 3-induced cell death, the level of intracellular H2O2 was measured. […] Exposure of A549 cells to NAC reduced levels of LC3-II from 2.3- to 1.5-folds (Figure 8B). […] In parallel, the complex 3-induced increase ratio of Bax/Bcl-2 was suppressed by NAC (Figure 8E).
The mode of cell death was analyzed by flow cytometry with annexin V/propidium iodide (PI) double-staining to detect membrane events according to a previous study. After individual treatments, whole cells were collected in 4-(2-hydroxyethyl)-1-piperazineethanesulfonic acid (HEPES) buffer containing 10 mM HEPES (pH 7.4), 140 mM NaCl, and 2.5 mM CaCl2. Cells were subsequently stained with annexin V (2.5 μg/ml) and PI (2 ng/ml) for 20 min, followed by analysis by flow cytometry (Beckman Coulter). Cystograms of the four quadrants in the figure were used to distinguish normal (annexin V^−/PI^−), early apoptotic (annexin V^+/PI^−), late apoptotic(annexin V^+/PI^+), and necrotic cells (annexin V^−/PI^+). The sum of early apoptosis and late apoptosis is presented as total apoptosis.

Test [8] has as its system A549 cells. The test can be described thus: Autophagy by acridine orange flow cytometry (AVOs). In kind it is cell-based, human. The settings on record: A549, NAC pretreatment. As for the experimental part: as §5, §6
Flow cytometry with acridine orange staining as described in a previous study was used to detect and quantify the AVOs, one of the characteristicsof autophagy. At the end of individual experiments, A549 cells were collected in phenol red-free RPMI 1640 medium. Green (FL-1) and red (FL-3) fluorescences of acridine orange were measured using a flow cytometer and CellQuest software (Becton Dickinson, San Jose, CA). The sum of the upper-left and upper-right quadrants of the cytogram was used to estimate the percentage of cells undergoing autophagy.

The test system of test [9] is A549 cells. The test can be described thus: Annexin V-FITC/PI apoptosis assay (flow cytometry). In kind it is cell-based, human. The settings on record: A549, 50 μM for 24 h (figure legend and method: 10 μM). As for the experimental part: (§7) Apoptosis is a crucial programmed death form of aging or damaged cells. […] To further explore the impact of complex 3 on long-term clonogenic survival, colony formation assay was performed.
(§8) Annexin V-FITC apoptosis detection kit (Keygen, Jiangsu, China) assay was performed according to the manufacturer's protocol. […] Then the cells were collected, resuspended in binding buffer (pH 7.5, 10 mM HEPES, 2.5 mM CaCl2 and 140 mM NaCl), incubated with Annexin V-FITC and then PI for 10 min in the dark at room temperature, the processed cells were analyzed by flow cytometry (FACSCalibur, Becton Dickinson) and a computer station running Cell-Quest software. (BD Biosciences, Franklin Lakes, NJ).
(In general: A flow cytometer gives signals particle by particle.)

The subject of test [10] is NCI-H1299 cells. As to the kind of experiment: Annexin V-FITC/PI apoptosis assay (flow cytometry). It counts as cell-based, human. The settings on record: NCI-H1299, 50 μM for 24 h (figure legend and method: 10 μM). Here is the method: as §7, §8
Test [11] concerns pET28a plasmid DNA. As to the kind of experiment: Agarose gel electrophoresis of plasmid DNA. The settings on record: 0, 20, 80, 320, 640 μM.
Protocol: The tested complexes were incubated with DNA at different concentrations.
Appropriate dilutions of tested complexes were made, and the required volumes of solutions were added to achieve a set of concentrations in the range of 0–100 mm; pET22b DNA (5 mL, 0.20 mg) was added to each tube, and the mixtures of platinum complexes and pET22b plasmid DNA were then incubated at 37°C for 6 or 24 h. Afterward, the agarose gel (made up to 1% w/v) containing ethidium bromide was prepared with TA buffer (50 mm Tris-acetate, pH 7.5). The mixtures with loading buffer (1 mL) underwent electrophores is in agarose gel in TA buffer at 100 V for 60 min. Bands were imaged using a Molecular Imager (Bio-Rad, USA) under UV light.
For test [12], the system named is p-mTOR. The test can be described thus: Western blot of PI3K/Akt/mTOR pathway. In kind it is cell-based, human. The settings on record: A549, 10 μM, 24 h, relative to control. From the text:
(§9) The mammalian target of rapamycin (mTOR) kinase is used to regulate autophagy as controlled though oxidative stress, hypoxia and growth receptors. The phosphatidylinosital-3 kinase (PI3K)/Akt signaling pathway activates mTOR through phosphorylating and inactivating the tuberous sclerosis complex (TSC)1–TSC2 complex. Inhibition of mTOR results in activation of autophagy. […] At the same time, levels of the p-Akt protein decreased to 0.95-, 1.02-, and 0.39-folds, respectively (Figure 7B). […] As a results, the administration of complex 3 decreased levels of proteins in PI3K/Akt/mTOR signaling pathways.
(§10) Lysates were centrifuged at 12,000 g for 0.5 h at 4°C. The concentrations of total proteins were measured using the BCA assay method with Varioskan spectrofluorometer and spectrophotometer (Thermo, Waltham, MA) at 562 nm. Protein (20–100 μg) prepared from the indicated cells was loaded per lane and electrophoresed in 8% or 10% sodium dodecyl sulfate polyacrylamide gel electrophoresis (SDS-PAGE), and then transferred onto polyvinylidene difluoride (PVDF) Immobilon-P membrane (Bio-Rad, USA) using a transblot apparatus (Bio-Rad, USA). The membranes were blocked with 5% (w/v) non-fat milk at 0.5 h at 37°C, followed by overnight incubation at 4°C with primary antibodies diluted in PBST. After washing with PBST, the membranes were incubated for 1 h with an IRDye´800 conjugated secondary antibody diluted 1:20000 in PBST, and the labeled proteins were detected with an Odyssey Scanning System (Li-COR., Lincoln, Nebraska, USA).
Background: In western blotting, separated proteins are transferred to a membrane and probed.

The test system of test [13] is p-Akt. As to the kind of experiment: Western blot of PI3K/Akt/mTOR pathway. It counts as cell-based, human. The settings on record: A549, 10 μM, 24 h, relative to control.
Text: as §9, §10

The test system of test [14] is MCF-7. The test can be described thus: MTT cytotoxicity assay. The settings on record: exposed for 48 h. It counts as cell-based, human. Here is the method: as §2
In vitro cytotoxicity of the platinum compounds against human hepatocellular carcinoma (HepG-2), gastric carcinoma (SGC-7901), non-small-cell lung cancer (A549), and colorectal cancer (HCT-116) cell lines were measured by the MTT assays. Briefly, the cells were seeded in 96-well cultured plates at a density of 5000 cells/well. After overnight incubation (16 h), the cells were treated with the platinum complexes. […] The cell viability was evaluated by measurement of the absorbance at 490 nm, using an Absorbance Reader (BioRad). […] The reading values were converted to the percentage of control (% cell survival). Cytotoxic effects were expressed as IC50 values.

Where only a bound is given, the exact number is not on record here.

The term IC50 denotes the concentration that gives 50% inhibition. As to `CC(C)C[NH+]1[C@@H]2CCCC[C@H]2[NH+](CC(C)C)[Pt-2]1([Cl])[Cl]` (stereo partly shown) [Complex 1], the IC50 in test [1] was 70.5 ± 5.56 µM; in test [2], 44.6 ± 3.24 µM; in test [3] it was 34.1 ± 2.55 µM; in test [4], 148 ± 10.6 µM; in [5] it was > 100 µM; in test [6], > 100 µM.

For the compound `CC(C)C[NH+]1[C@@H]2CCCC[C@H]2[NH+](CC(C)C)[Pt-2]12[O]C(=O)C1(CCC1)C(=O)[O]2` (stereo partly shown) [Complex 4], the IC50 in test [1], in [2], in test [3], in test [4], in [5] and in test [6] was > 100 µM throughout.

On to `CC(C)C[NH+]1[C@@H]2CCCC[C@H]2[NH+](CC(C)C)[Pt-2]12[O]C(=O)C(=O)[O]2` (stereo partly shown) [Complex 2], for which the IC50 in [1] is 37 ± 2.76 µM; in test [2], > 100 µM; in test [3] it was > 100 µM; in [4], > 100 µM; in [5] it was > 100 µM; in [6], 28.4 ± 1.45 µM.

Take `CC(C)CN[C@@H]1CCCC[C@H]1N.O=C([O-])CC(=O)[O-].[Pt+2]` [Complex 3a, [(1R,2R)-N^1-(2-methylpropyl)-1,2-cyclohexanediamine-N,N’](malonato-O,O’), reference compound]: the “effect of NAC pretreatment on percentage of apoptosis” value in test [7] was “no decreased percentage”. The “effect of NAC pretreatment on percentage of autophagy” value in [8] is “no decreased percentage of autophagy”. The “early and median apoptotic cells” value is 12.37% in test [9] and 4.58% in test [10]. This compound came in with a late apoptotic cells in test [10] of 4.12%. For the same compound, the concentration for half-maximal inhibition (IC50) was 65.8 ± 4.95 µM in test [1]; > 100 µM in test [3]; 94.9 ± 6.74 µM in test [5]; 77.5 ± 5.04 µM in test [6]; > 100 µM in [14]. For the same compound, the “gel electrophoretic mobility of plasmid DNA” value in test [11] is given as “no migration was observed”. The “amounts of p-mTOR” value in [12] turned out to be 0.69 folds. Moreover, the “levels of the p-Akt protein” value in test [13] stood at 0.39 folds.
